Values joined by “and” are separate entries in the source; they are usually repeats but may differ in a detail not shown here. Identical values can stand only once.
Target: T1, GVIA iPLA2 (Homo sapiens, UniProt O60733)
T1 sequence (O60733 1-806): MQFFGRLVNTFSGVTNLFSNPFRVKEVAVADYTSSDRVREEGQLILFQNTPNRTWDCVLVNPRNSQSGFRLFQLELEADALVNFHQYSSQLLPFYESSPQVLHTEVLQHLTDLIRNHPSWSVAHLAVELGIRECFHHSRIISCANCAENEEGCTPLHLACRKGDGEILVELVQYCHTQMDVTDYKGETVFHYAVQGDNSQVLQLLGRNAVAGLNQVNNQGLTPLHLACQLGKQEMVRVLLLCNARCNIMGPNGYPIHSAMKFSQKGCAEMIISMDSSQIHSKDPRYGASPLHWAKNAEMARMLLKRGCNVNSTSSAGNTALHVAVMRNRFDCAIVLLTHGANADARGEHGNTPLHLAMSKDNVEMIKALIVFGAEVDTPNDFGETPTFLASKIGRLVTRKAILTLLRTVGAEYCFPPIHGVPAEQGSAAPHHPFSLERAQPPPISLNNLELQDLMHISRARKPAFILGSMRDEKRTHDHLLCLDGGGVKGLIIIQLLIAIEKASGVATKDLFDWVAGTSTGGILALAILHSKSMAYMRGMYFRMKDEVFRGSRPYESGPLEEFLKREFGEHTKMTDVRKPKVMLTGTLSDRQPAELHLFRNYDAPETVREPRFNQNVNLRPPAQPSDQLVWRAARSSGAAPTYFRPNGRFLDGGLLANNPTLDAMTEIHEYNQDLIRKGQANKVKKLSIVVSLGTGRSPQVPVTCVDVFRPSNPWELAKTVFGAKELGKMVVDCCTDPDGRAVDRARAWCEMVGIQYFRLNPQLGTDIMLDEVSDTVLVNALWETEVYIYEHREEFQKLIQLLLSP
Assay: In vitro PLA2 mixed micellar assay (modified Dole assay), GVIA iPLA2
Format: biochemical
Settings: at 0.091 mole fraction of inhibitor, n = 3
Procedure: FIG. 3 illustrates the dose-response curves for 2-oxoamide inhibitors of GVIA iPLA2. Inhibition of the activity of human GVIA iPLA2 by inhibitors (a) 8a and (b) 13 was tested on mixed-micelles containing 100 μM PAPC and 400 μM Triton X-100. Inhibition curves were generated by Graphpad Prism using a non-linear regression (one-site binding model—hyperbola) to calculate the reported XI(50) values.
All the inhibitors synthesized in this work were tested for inhibition of GIVA cPLA2, GVIA iPLA2 and GV sPLA2 using mixed micellar assays. Details for the assays have been published previously. The results of the inhibition are presented in Table 1 using either percent inhibition or XI(50) values. Initially, the percent inhibition of each PLA2 at 0.091 mole fraction of inhibitor was determined. XI(50) values were estimated when the percent inhibition was higher than 90%. The XI(50) is the mole fraction of the inhibitor in the total substrate interface required to inhibit the enzyme by 50%. Data for the reference 2-oxoamide inhibitors AX006 and AX048 are included in Table 1 for comparison.
Phospholipase A2 activity was determined using the previously described modified Dole assay with buffer and substrate conditions optimized for each enzyme as described previously: (i) GIVA cPLA2 substrate mixed-micelles were composed of 400 μM Triton X-100, 97 μM PAPC, 1.8 μM ^14C-labeled PAPC, and 3 μM PIP2 in buffer containing 100 mM HEPES pH 7.5, 90 μM CaCl2, 2 mM DTT and 0.1 mg/ml BSA; (ii) GVI iPLA2 substrate mixed-micelles were composed of either (a) 400 μM Triton X-100, 99 μM DPPC, and 1.5 μM ^14C-labeled DPPC in buffer containing 200 mM HEPES pH 7.0, 1 mM ATP, 2 mM DTT and 0.1 mg/ml BSA or (b) 400 μM Triton X-100, 98.3 μM PAPC, and 1.7 μM ^14C-labeled PAPC in buffer containing 100 mM HEPES pH 7.5, 2 mM ATP and 4 mM DTT; and (iii) GV sPLA2 substrate mixed-micelles were composed of 400 μM Triton X-100, 99 μM DPPC, and 1.5 μM ^14C-labeled DPPC in buffer containing 50 mM Tris pH 8.0 and 5 mM CaCl2.
Initial screening of compounds at 0.091 mole fraction inhibitor in mixed-micelles was carried out. Compounds displaying 25% or less inhibition had no inhibitory affect (designated N.D.). The average percent inhibition (and standard error, n=3) for compounds displaying more than 25% and less than 90% enzyme inhibition is reported herein. If the percent inhibition was greater than 90%, then its XI(50) was determined by plotting percent inhibition vs. inhibitor molar fraction (7 points; typically 0.005 to 0.091 mole fraction). Inhibition curves were modeled in Graphpad Prism using either a linear (x, y intercept=0) or non-linear regression (one-site binding model—hyperbola, BMAX=100) to calculate the reported XI(50) and associated error values.

| SMILES | GVIA iPLA2 % inhibition |
| --- | --- |
| CCCCCCCCCCCCCCC(=O)C(=O)N[C@H](C(=O)NCC(=O)OC)C(C)C [Compound 4b, (S)-Methyl-2-(3-methyl-2-(2-oxohexadecanamido)butanamido)-acetate] | N.D.^a (N.D. signifies compounds with less than 25% inhibition (or no detectable inhibition).) |
| CCCCCCCCCCCCCCC(=O)C(=O)N[C@@H](CCCC)C(=O)NCC(=O)O [Compound 9a, (S)-2-(2-(2-Oxohexadecanamido)hexanamido)acetic Acid] | N.D.^a (N.D. signifies compounds with less than 25% inhibition (or no detectable inhibition).) |
| CCCCCCCCCCCCCCC(=O)C(=O)N[C@H](C(=O)NCC(=O)O)C(C)C [Compound 9b, (S)-2-(3-Methyl-2-(2-oxohexadecanamido)butanamido)acetic Acid] | N.D.^a (N.D. signifies compounds with less than 25% inhibition (or no detectable inhibition).) |
| CCCCCCCCCCCCCCC(=O)C(=O)N[C@@H](CCCC)COCC(=O)OC(C)(C)C [Compound 17, (S)-tert-Butyl 2-(2-(2-oxohexadecanamido)hexyloxy)acetate] | 81% |
| CCCCCCCCCCCCCCC(=O)C(=O)N[C@@H](CCCC)COCC(=O)O [Compound 18, (S)-2-(2-(2-oxohexadecanainido)hexyloxy)acetic Acid] | N.D.^a (N.D. signifies compounds with less than 25% inhibition (or no detectable inhibition).) |

Same assay, conditions: mixed micelles; mole fraction of inhibitor in total substrate interface required to inhibit the enzyme by 50%

| SMILES | GVIA iPLA2 X1(50) |
| --- | --- |
| CCCCCCCCCCCCCCC(=O)C(=O)N[C@@H](CCCC)C(=O)NCC(=O)OC [Compound 4a, (S)-Methyl 2-(2-(2-oxohexadecanamido)hexanamido)acetate] | 0.045 ± 0.018 mole fraction |
| CCCCCCCCCCCCCCC(=O)C(=O)N[C@@H](CCCC)C(=O)NCC(=O)OCC [Compound 4c, (S)-Ethyl 2-(2-(2-oxohexadecanamido)hexanamido)acetate] | 0.020 mole fraction and 0.020 ± 0.002 mole fraction |
| CCCCCCCCCCCCCCC(=O)C(=O)N[C@@H](CCCC)C(=O)NCC(=O)OC(C)(C)C [Compound 8a, (S)-tert-Butyl 2-(2-(2-oxohexadecanamido)hexanamido)acetate] | 0.011 mole fraction and 0.011 ± 0.001 mole fraction |
| CCCCCCCCCCCCCCC(=O)C(=O)N[C@H](C(=O)NCC(=O)OC(C)(C)C)C(C)C [Compound 8b, (S)-tert-Butyl-2-(3-methyl-2-(2-oxohexadecanamido)butanamido)-acetate] | 0.044 ± 0.025 mole fraction |
| CCCCCCCCCCCCCCC(=O)C(=O)N[C@@H](CCCC)COCC(=O)OCC [Compound 13, (S)-Ethyl 2-(2-(2-oxohexadecanamido)hexyloxy)acetate] | 0.017 mole fraction and 0.017 ± 0.002 mole fraction |

— patent publication US8580852B2, “2-oxamide inhibitors of phospholipase A2 activity and cellular arachidonate release based on dipeptides and pseudopeptides” (The Regents of the University of California, priority 2009, dated 2013)
